Test results published in patent US20230084927A1, “GLUCOSE UPTAKE INHIBITORS AND USES THEREOF” (METABOMED LTD., priority 2019, published 2023).
Like-named read-outs stand apart in the source and are kept apart here.

Key:
[1] = test system: SDH-WT cells; assay: Cellular / differential toxicity assay (CellTiter-Glo, 3 days); type: cell-based, murine; settings: toxicity, SDH-WT cells, 3 days, CellTiter-Glo, read-out: EC50 (uM) SDH-WT
Experimental: (§1) Identification of compounds that target specifically SDH-deficient cells was done by screening a library of small-molecule by using a differential toxicity screen with SDHB-proficient vs. SDHB-deficient cells (the […] cells were described in Cardaci 2015).
(§2) Cells Used for the Differential Assays: SDH-WT; SDH-KO-HRAS
(§3) Cell Culture Conditions: • Medium: DMEM-F12 medium+1 mM Glutamine+3% FBS • Plates: 96 well plate—Black, clear flat bottom • Incubation time: 3 days • Compound concentration: 10 point dilution starting from 10 uM to 0.0065 uM or a lower range when needed. • Viability assay at the end of incubation: Celltiter-Glo (CTG) from Promega.
(§4) Protocol: • Day 1: Plate cells in 96 well plate together with the appropriate concentration of compound.
(§5) Incubate for 3 days at 37° C. in 5% CO2 tissue culture incubator. • Day 4: Check viability of cells by adding CTG reagent and read luminescence in plate reader
(§6) SDH-WT and SDH-KO cells were grown in DMEM F12 supplemented with 1 mM Glutamine+3% FBS were treated with different concentrations of the indicated compounds in FIG. 11. Cell viability was determined 72 hours later by CellTiter Glue reagent (Promega), the luminescence was measured with ClarioStar reader (BMG) and the EC50s were calculated by Prism.
as §6, with “compounds.” for “compounds in FIG. 11.”
(§7) The cells were grown in DMEM F12 supplemented with 1 mM Glutamine+3% FBS were treated with different concentrations of the indicated compounds. Cell viability was determined 72 hours later by CellTiter Glue reagent (Promega), the luminescence was measured with ClarioStar reader (BMG) and the EC50s were calculated by Prism. Murine SDHB-WT/KO, HRAS transformed isogenic pair (FIG. 12A); UOK269, Human Tumor-derived SDHB-deficient RCC in their WT counterpart with re-expression of SDHB (FIG. 12B); and ACHN, RCC cells, and their SDHB-KO (SDHB CRISPRed out) isogenic cells (FIG. 12C).

[2] = test system: SDH-KO-HRAS cells (SDHB-deficient); assay: as above; type: cell-based, murine; settings: toxicity, SDH-KO cells, 3 days, CellTiter-Glo, read-out: EC50 (uM) SDH-KO-HTAS-C17
Experimental: as §1, §2, §3, §4, §5, §6
as §6, with “compounds.” for “compounds in FIG. 11.”
as §7

Row | SMILES | EC50 ([1]; Mus musculus, 72 h) [µM] | EC50 ([2]; Mus musculus, 72 h) [µM] | EC50 [1] [µM] | EC50 [2] [µM]
1 | CC1(C)Cc2nc3sc4c(NCCc5ccc6[nH]cnc6c5)ncnc4c3c(C(=O)OCCCCCCCCCCCCCCCC(=O)O)c2CO1 [Compound 211] | 3 to 10 | 3 to 10 | – | –
2 | CC1(C)Cc2nc3sc4c(NCCc5ccc6[nH]cnc6c5)ncnc4c3c(C(=O)OCCCCCCCCCCCC(=O)O)c2CO1 [Compound 212] | 3 to 10 | 3 to 10 | – | –
3 | COCOCCOCCOCCOCc1c2c(nc3sc4c(NCCc5ccc6[nH]cnc6c5)ncnc4c13)CC(C)(C)OC2 [Compound 213] | > 10 | 1 to 3 | – | –
4 | COCCOCCOCCOCCOCCOCc1c2c(nc3sc4c(NCCc5ccc6[nH]cnc6c5)ncnc4c13)CC(C)(C)OC2 [Compound 214] | > 10 | 1 to 3 | – | –
5 | CCCCCCNc1nc(C)nc2c1sc1nc3c(cc12)COC(C)(C)C3 [Compound 215] | > 10 | > 10 | – | –
6 | CCCCCCNc1ncnc2c1sc1nc3c(cc12)COC(C)(C)C3 [Compound 216] | > 10 | > 10 | – | –
7 | CCCCNc1ncnc2c1sc1nc3c(cc12)COC(C)(C)C3 [Compound 217] | – | – | 3 to 10 | 1 to 3
8 | CCN(CC)CCNc1ncnc2c1sc1nc3c(cc12)COC(C)(C)C3 [Compound 218] | > 10 | > 10 | – | –
9 | CCC(C)Nc1nc(C)nc2c1sc1nc3c(cc12)COC(C)(C)C3 (stereo not shown) [Compound 219] | > 10 | 3 to 10 | – | –
10 | Cc1nc(NCC(C)C)c2sc3nc4c(cc3c2n1)COC(C)(C)C4 [Compound 220] | > 10 | > 10 | – | –
11 | C=CCNc1ncnc2c1sc1nc3c(cc12)COC(C)(C)C3 [Compound 221] | > 10 | – | – | > 10
12 | Cc1nc(NCCCO)c2sc3nc4c(cc3c2n1)COC(C)(C)C4 [Compound 222] | > 10 | > 10 | – | –
13 | Cc1nc(N2CCOCC2)c2sc3nc4c(cc3c2n1)COC(C)(C)C4 [Compound 223] | > 10 | > 10 | – | –
14 | CC(C)CNc1ncnc2c1sc1nc3c(cc12)COC(C)(C)C3 [Compound 224] | > 10 | > 10 | – | –
15 | Cc1nc(NCCN(C)C)c2sc3nc4c(cc3c2n1)COC(C)(C)C4 [Compound 225] | > 10 | > 10 | – | –
16 | Cc1nc(NCCCN(C)C)c2sc3nc4c(cc3c2n1)COC(C)(C)C4 [Compound 226] | > 10 | > 10 | – | –
17 | CN(C)CCNc1ncnc2c1sc1nc3c(cc12)COC(C)(C)C3 [Compound 227] | > 10 | > 10 | – | –
18 | CN(C)CCCNc1ncnc2c1sc1nc3c(cc12)COC(C)(C)C3 [Compound 228] | > 10 | > 10 | – | –
19 | CCCCNc1nc(C)nc2c1sc1nc3c(cc12)COC(C)(C)C3 [Compound 229] | > 10 | 3 to 10 | – | –
20 | Cc1nc(NCCN2CCOCC2)c2sc3nc4c(cc3c2n1)COC(C)(C)C4 [Compound 230] | > 10 | > 10 | – | –

Row | SMILES | EC50 ([1]; Mus musculus, 72 h) [µM] | EC50 ([2]; Mus musculus, 72 h) [µM] | EC50 [1] [µM] | EC50 [2] [µM]
21 | Cc1nc(NCC2CCCO2)c2sc3nc4c(cc3c2n1)COC(C)(C)C4 (stereo not shown) [Compound 231] | > 10 | > 10 | – | –
22 | CC1(C)Cc2nc3sc4c(NCc5ccco5)ncnc4c3cc2CO1 [Compound 232] | > 10 | > 10 | – | –
23 | Cc1nc(N2CCCCC2)c2sc3nc4c(cc3c2n1)COC(C)(C)C4 [Compound 233] | > 10 | > 10 | – | –
24 | CCN(CC)CCNc1nc(C)nc2c1sc1nc3c(cc12)COC(C)(C)C3 [Compound 234] | > 10 | > 10 | – | –
25 | Cc1nc(NCc2ccc(OC(C)C)cc2)c2sc3nc4c(cc3c2n1)COC(C)(C)C4 [Compound 235] | > 10 | > 10 | – | –
26 | CC1CCC(C)N(c2ncnc3c2sc2nc4c(cc23)COC(C)(C)C4)C1 (stereo not shown) [Compound 236] | > 10 | > 10 | – | –
27 | Cc1nc(N)c2sc3nc4c(cc3c2n1)COC(C)(C)C4 [Compound 237] | > 10 | 3 to 10 | – | –
28 | CC1(C)Cc2nc3sc4c(NCCCO)ncnc4c3cc2CO1 [Compound 238] | > 10 | > 10 | – | –
29 | CC(C)CCNc1ncnc2c1sc1nc3c(cc12)COC(C)(C)C3 [Compound 239] | > 10 | > 10 | – | –
30 | Cc1nc(NCCc2ccccc2)c2sc3nc4c(cc3c2n1)COC(C)(C)C4 [Compound 240] | > 10 | 3 to 10 | – | –
31 | CCCCCCCNc1nc(C)nc2c1sc1nc3c(cc12)COC(C)(C)C3 [Compound 241] | > 10 | > 10 | – | –
32 | CCCCN(C)c1nc(C)nc2c1sc1nc3c(cc12)COC(C)(C)C3 [Compound 242] | > 10 | > 10 | – | –
33 | CCCCCNc1ncnc2c1sc1nc3c(cc12)COC(C)(C)C3 [Compound 243] | 3 to 10 | 3 to 10 | – | –
34 | Cc1nc(NN)c2sc3nc4c(cc3c2n1)COC(C)(C)C4 [Compound 244] | > 10 | > 10 | – | –
35 | CC1CCN(c2ncnc3c2sc2nc4c(cc23)COC(C)(C)C4)CC1 [Compound 245] | > 10 | > 10 | – | –
36 | CCCCCCCCNc1ncnc2c1sc1nc3c(cc12)COC(C)(C)C3 [Compound 246] | > 10 | > 10 | – | –
37 | CC1(C)Cc2nc3sc4c(NCC5CCCO5)ncnc4c3cc2CO1 (stereo not shown) [Compound 247] | > 10 | 3 to 10 | – | –
38 | CCCN(CCC)c1nc(C)nc2c1sc1nc3c(cc12)COC(C)(C)C3 [Compound 248] | > 10 | > 10 | – | –
39 | CCCCCCCCCNc1ncnc2c1sc1nc3c(cc12)COC(C)(C)C3 [Compound 249] | > 10 | > 10 | – | –
40 | Cc1nc(NCCO)c2sc3nc4c(cc3c2n1)COC(C)(C)C4 [Compound 250] | > 10 | > 10 | – | –

Row | SMILES | EC50 ([1]; Mus musculus, 72 h) [µM] | EC50 ([2]; Mus musculus, 72 h) [µM] | EC50 [1] [µM] | EC50 [2] [µM]
41 | Cc1nc(NCCC(C)C)c2sc3nc4c(cc3c2n1)COC(C)(C)C4 [Compound 251] | > 10 | > 10 | – | –
42 | Cc1nc(NC(C)CCc2ccccc2)c2sc3nc4c(cc3c2n1)COC(C)(C)C4 (stereo not shown) [Compound 252] | – | > 10 | > 10 | –
43 | CCN(CC)c1nc(C)nc2c1sc1nc3c(cc12)COC(C)(C)C3 [Compound 253] | > 10 | > 10 | – | –
44 | Cc1nc(NCc2ccccc2)c2sc3nc4c(cc3c2n1)COC(C)(C)C4 [Compound 254] | > 10 | > 10 | – | –
45 | CCCCCCCNc1ncnc2c1sc1nc3c(cc12)COC(C)(C)C3 [Compound 255] | > 10 | > 10 | – | –
46 | CCCCN(CC)c1ncnc2c1sc1nc3c(cc12)COC(C)(C)C3 [Compound 256] | 3 to 10 | 3 to 10 | – | –
47 | CC1(C)Cc2nc3sc4c(NCCO)ncnc4c3cc2CO1 [Compound 257] | > 10 | > 10 | – | –
48 | CCCCN(CCCC)c1ncnc2c1sc1nc3c(cc12)COC(C)(C)C3 [Compound 258] | > 10 | > 10 | – | –
49 | CC(C)(C)Nc1ncnc2c1sc1nc3c(cc12)COC(C)(C)C3 [Compound 259] | > 10 | > 10 | – | –
50 | CC1(C)Cc2nc3sc4c(NCCc5ccccc5)ncnc4c3cc2CO1 [Compound 260] | > 10 | > 10 | – | –
51 | CC1(C)Cc2nc3sc4c(NC5CCCCC5)ncnc4c3cc2CO1 [Compound 261] | > 10 | > 10 | – | –
52 | CCCCCNc1nc(C)nc2c1sc1nc3c(cc12)COC(C)(C)C3 [Compound 262] | > 10 | > 10 | – | –
53 | Cc1nc(N2CCC(C)CC2)c2sc3nc4c(cc3c2n1)COC(C)(C)C4 [Compound 263] | > 10 | > 10 | – | –
54 | Cc1nc(NC2CCCCC2)c2sc3nc4c(cc3c2n1)COC(C)(C)C4 [Compound 264] | > 10 | 3 to 10 | – | –
55 | Cc1nc(NC(C)CCc2ccccc2)c2sc3nc4c(cc3c2n1)COC(C)(C)C4 (stereo not shown) [Compound 265] | – | – | 3 to 10 | > 10
56 | Cc1nc(NC(C)Cc2ccccc2)c2sc3nc4c(cc3c2n1)COC(C)(C)C4 (stereo not shown) [Compound 266] | 3 to 10 | > 10 | – | –
57 | CC1(C)Cc2nc3sc4c(NCCN5CCOCC5)ncnc4c3cc2CO1 [Compound 267] | > 10 | > 10 | – | –
58 | Cc1nc(N2CCCC2)c2sc3nc4c(cc3c2n1)COC(C)(C)C4 [Compound 268] | > 10 | > 10 | – | –
59 | CCCCN(CC)c1nc(C)nc2c1sc1nc3c(cc12)COC(C)(C)C3 [Compound 269] | > 10 | > 10 | – | –
